Assay results: a melting point compilation (Tetko et al.; mined from patent text by program, amines drawn as free bases though some values may be those of a salt)

melting point [°C]	Structure (SMILES)
178 to 180	O=S(=O)(c1ccc(O)cc1)c1ccc2cc(Br)ccc2c1
153 to 156	CC1OC(=O)C(c2ccccc2)OC1=O (centres undefined)
170 to 172	CC#CCOc1ccc(S(=O)(=O)N(C)C(C(=O)O)c2ccc(Cl)cc2)cc1 (centres undefined)
161 to 163	Cn1nc(-c2ccccc2)c(C=Cc2ccccc2C(=O)O)c1Cl
127 to 129	COc1cc([N+](=O)[O-])ccc1S(=O)(=O)Nc1ccccc1C
117 to 121	COC(=O)CCCc1cc2cc(C(F)(F)F)ccc2n1S(=O)(=O)c1ccc2ncsc2c1
134	COc1ccc(-n2c(=O)n(C)c(=O)n(CC(C)(C)C)c2=O)cc1
132 to 133	COc1ccc(C2CN(C)C(=O)O2)cc1OC (centres undefined)
190	COc1ccc2ccc(=O)[nH]c2c1
202	Cc1c(C(=O)O)cnn1-c1ccc([N+](=O)[O-])cc1
172 to 173	CCCCc1nc(Cl)c(COC(C)=O)n1Cc1ccc(-c2cccc(C(=O)O)c2)cc1
167 to 171	COc1ccc(C(=O)Nc2ccc(C(=O)Cl)c3ccccc23)cc1OC
190 to 191	O=C(c1ccccc1)c1nsc2nc3ccccc3n12
204 to 205	CC(=Cc1ccc(O)cc1)C(=O)O
130 to 132	CCc1c(C)nc(SCc2cc(C)ccn2)[nH]c1=O
28 to 30	C=C(CCCO)c1ccc(C(=O)OC)cc1
84 to 86	COC(=O)Cc1ccc(OCCN2CCN(c3cc(Cl)nnc3Cl)CC2)cc1
275 to 277	O=C(O)c1cccc2c(Cl)c3ccccc3cc12
246	O=c1cc(-c2nnn[nH]2)oc2cc(COc3cccc(OCc4ccc5ccccc5n4)c3)ccc12
134	Cc1ccc(C2CCCN2S(=O)(=O)c2ccc(F)cc2)c(C)c1 (racemic)

melting point [°C]	Structure (SMILES)
178 to 180	CC(=O)NC1COc2c(C)ccc(N)c2C1=O (centres undefined)
97 to 107	CN1CC(CCCl)Oc2ccccc2C1=O (centres undefined)
118 to 119	CN(C(c1ccc(F)cc1)c1ccc(Cl)cc1Cl)n1cncn1 (centres undefined)
258	O=C(O)C1Cc2sccc2C(=O)N1Cc1ccccc1 (centres undefined)
169 to 170	COc1cccc(C2COc3c(C)c(C)c(NC(=O)CC(C)(C)C)c(C)c32)c1 (centres undefined)
92 to 94	Cc1c(NCCNCC(O)COc2ccccc2)c(=O)n(C)c(=O)n1C (centres undefined)
89 to 91	COCC1CN(c2ccc(C3CCC(=C(C)C)CC3)cc2)C(=O)O1 (racemic)
116 to 121	COc1ccc(N2CCN(C)CC2)cc1-c1cnn2c(N)c(-c3cccc(Cl)c3)c(C)nc12
103 to 104	CCN(CC)c1ccc(N=Nc2ccc(OCCOC)c(S(=O)(=O)Cl)c2)cc1
177 to 178	COc1ccccc1N1CCN(C(=O)Nc2nc3ccccc3nc2OC)CC1
162 to 164	O=C1C=CC(=O)N1c1ccc(Oc2ccc3ccc(Oc4ccc(N5C(=O)C=CC5=O)cc4)cc3c2)cc1
248 to 249	O=C1c2cc(F)ccc2S(=O)(=O)c2cc(C3=NCCN3)ccc21
94	CC(C)(C)OC(=O)Cn1c(C(=O)OCc2ccccc2)cc2cnccc21
214 to 216	CCNS(=O)(=O)c1ccc(-c2cnc3[nH]c(CCc4cc(OC)ccn4)nc3c2)cc1
108 to 111	CCOc1cc(C(C)(C)C)ccc1-c1nc(-c2c(F)cccc2Cl)nn1C
234 to 235	N#CNC=Nc1ccc(-c2c[nH]cn2)cc1
54 to 56	O=C1NC(=O)C(Cc2ccc(OCC3CCN(C(=O)OCc4ccccc4)CC3)cc2)S1 (centres undefined)
> 200	O=C(O)c1ccc(-c2cnc3c(c2)N(Cc2c(Cl)cccc2Cl)C(=O)CN3)cc1
83 to 84	COc1ccc2cc(CCCCC(O)CCc3cccnc3)ccc2c1 (centres undefined)

The next lines start with the compound.

Structure (SMILES)	melting point [°C]
Cc1cnc2c(NC(=O)c3c(Cl)cccc3Cl)ccc(C)c2c1-n1ccnc1	214 to 216
Oc1ccc(Cc2ccc(OCC(O)CCc3cccnc3)cc2)cc1 (centres undefined)	98 to 99
N#Cc1cc([N+](=O)[O-])ccc1Oc1c(F)c(F)cc(F)c1F	152 to 154
CCOCc1nc2c(N)nc3cc(-c4cncc(CO)c4)ccc3c2n1CC(C)C	211 to 212
CC(C)(C)NC(=O)C1C(C=C(Cl)Cl)C1(C)C (centres undefined)	108 to 109
O=c1c(C(F)(F)F)cn(C2CC(O)C(CO)O2)c(=O)n1C1CCCO1 (centres undefined)	127 to 128
CCc1cn(C2CC(O)C(CNC)O2)c(=O)[nH]c1=O (centres undefined)	145 to 147
CCOC(=O)CCN(CCCCCCN(CCC(=O)OCC)C1CC(C)(C)NC(C)(C)C1)C1CC(C)(C)NC(C)(C)C1	58 to 60
CCCCCCCCCCCCCCOc1cccc(CBr)c1	34 to 35
CC(C(=O)NCc1ccc(C(C)(C)C)cc1)c1ccc(NS(C)(=O)=O)c(C(=O)NCc2ccccc2)c1 (centres undefined)	79 to 81
O=C(NCc1ccncc1)N(c1ccccc1)c1ccccc1	174
CCC(=O)c1c(O)c(CNC(C)=O)cc2c1CCCC2	136 to 140
CC(=O)OC12Oc3c(C(C)(C)C)cc(C(C)(C)C)cc3C1(OC(C)=O)C(=O)c1ccccc12 (centres undefined)	242 to 247
CS(=O)(=O)c1ccc(-c2cnn(CC(F)(F)F)c(=O)c2-c2ccc(Cl)c(F)c2)cc1	174 to 175
Cc1n[nH]cc1-c1cccc2c1nnn2-c1ccnc(NC2CCC(C(=O)N3CCC(O)CC3)CC2)n1 (centres undefined)	190 to 195
CCn1nc(-c2ccccc2)c(C(C)=O)c(Nc2cnccn2)c1=O	229 to 230
CCOC(=O)C(Cl)=NNc1ccccc1Br	106
O=C(O)c1cccc(Cl)c1C[PH](=O)CO (centres undefined)	219 to 220
CC(C)C(NC(=O)NCc1ccccc1)C(=O)NC(Cc1ccccc1)C(O)C(Cc1ccccc1)NC(=O)C(NC(=O)NCc1ccccc1)C(C)C (centres undefined)	238
COc1ccccc1N1CCN(C[C@@H](CC2CCCCC2)NC(=O)C2(C)CCCCC2)CC1	119 to 121

Structure (SMILES)	melting point [°C]
CCOCc1nc2c(N)nc(C)cc2n1NC(C)C	139 to 141
CN1CC(CCN2CCN(c3cccc(F)c3)CC2)OC1=O (centres undefined)	92 to 93
CC(=O)c1ccc(NS(=O)(=O)c2sc3ccc(F)cc3c2C)c(S(C)(=O)=O)c1	174 to 175
C=C(C)c1c(OCC)cc(Cc2cnc(N)nc2N)cc1OCC	196 to 198
CN1CCC(OC2c3ccccc3CCn3c2nc(-c2ccccc2)c3CO)CC1 (centres undefined)	120
CCCOc1cnc(CN)cc1O	159 to 160
O=C1CCCC2CN(C(Cc3ccccc3)=NCc3cccs3)CC12 (centres undefined)	114
CN1CCNC(c2ccccc2)c2cc(Cl)ccc21 (centres undefined)	66 to 68
NCC1CCc2[nH]c3ccc(F)c(Cl)c3c2C1 (centres undefined)	179 to 180
O=C(O)CN1CCC(Cc2ccccc2)CC1	250 to 252
O=c1[nH]nc2n1-c1ccc(N3CCCC3)nc1C(c1ccccc1Cl)=[N+]([O-])C2	200
COc1cc(CN2C(=O)CCC2=O)cc(OC)c1-c1ccc(C[C@H](NC(=O)c2c(Cl)cccc2Cl)C(=O)O)cc1	137
CN(C(=S)NN)c1ccccc1	121 to 122
CC(C)C(C)CNC(=O)c1ccc2c(c1)N(C(C)CN1CCCC1)c1ccccc1S2 (centres undefined)	138
O=C1c2ccccc2C(=O)N1OCCN(CCO)CCON1C(=O)c2ccccc2C1=O	136 to 138
CC(C)Cn1c(=O)n(C)c(=O)c2c(SCCO)n(Cc3cccc4ccccc34)cc21	138 to 141
CC(C)(C)c1cc(CCc2ccccc2NC(=O)NC2CCN(Cc3ccccc3F)CC2)cc(C(C)(C)C)c1O	136 to 137
O=C(O)c1cccc(C(=O)O)c1S(=O)(=O)Nc1ccc(F)cc1C(F)(F)F	250 to 254
COCCN1C(=O)C(C)(C)C(=O)N(C)c2cc(CN(CCn3cc(C)c4occc4c3=O)Cc3cccnc3C)ccc21	127 to 130
O=C1CCCC2=C1C(c1cccc([N+](=O)[O-])c1)C1=C(CCCC1)N2 (centres undefined)	218 to 221

Structure (SMILES)	melting point [°C]
CN(C)C(=N)c1nn(-c2c(Cl)cc(C(F)(F)F)cc2Cl)c(N)c1S(=O)C(F)(F)F (centres undefined)	123 to 126
COc1cc(N)c(Cl)cc1C(=O)NC1CCN2CCCC2C1 (centres undefined)	193 to 194
C=Cc1cn(-c2c(Cl)cc(C(F)(F)F)cc2Cl)nn1	109 to 111
CC(C)c1cc(C(C)C)c(CC(=O)NS(=O)(=O)Oc2c(C(C)C)cc(C#N)cc2C(C)C)c(C(C)C)c1	79 to 84
O=c1c2cc(F)c(N3CCCC3)cc2n(-c2ccc(F)cc2F)c(=O)n1OCc1ccccc1	212 to 214
CCNc1cc(OC)c(C(F)(F)F)cc1[N+](=O)[O-]	140 to 142
Cc1cc(C)c(N2CCC2=O)cc1NS(=O)(=O)C(F)(F)F	137 to 139
Ic1cc(I)c(OCCC(c2ccccc2)c2ccccc2)c(I)c1	120 to 121
N#CC(c1ccccn1)c1cccs1 (centres undefined)	48 to 50
O=C(O)CN(CC(=O)O)CC(=O)Nc1cc(C(F)(F)F)cc(C(F)(F)F)c1	201
Cc1ccc2c(c1)nnn2C1(c2ccccc2)OC(=O)c2cccc([N+](=O)[O-])c21 (centres undefined)	240 to 248
CCCC(C(C)C)C(CN)CC(=O)O (centres undefined)	160 to 170
CCS(=O)(=O)N(C)C1c2cc(F)c(Cl)cc2OC(C)(C)C1O (centres undefined)	188 to 190
COC(=O)c1ccc(C)c(-n2c(C)cc(OCc3ccccc3CNC(=O)Nc3cc(C(C)(C)C)nn3-c3ccc(O)cc3)c(Cl)c2=O)c1	199 to 200
CCOP(=O)(CC(Nc1cccnc1)c1cc(OC)c(OC)c(OC)c1)OCC (centres undefined)	104 to 106
CN(c1ccc(Cl)cc1)S(=O)(=O)c1cccc(NC(=O)c2ccc(Br)cc2)c1	187 to 189
CCOc1ccc2c(C)c(CCCl)c(=O)oc2c1OCC	89 to 90
Cc1cc(OC(=S)N(C)C)nc(C(Cl)(Cl)Cl)n1	81 to 83
N#Cc1cc(Br)c(C(=O)CCl)s1	126 to 128
CN(C)CC(O)C(c1ccccc1)c1ccccc1 (centres undefined)	72 to 73
